Experimental data from patent publication US12187700B2, “Polymorphs and cocrystals of a cardiac troponin activator” (Amgen Inc., priority 2019, dated 2025).
≈ marks a conversion by molar mass, not a printed value. Where a name gives a salt, the structure may show the parent alone.

Experiments:
Format in all cases: physicochemical
[1] = Static storage stability of cocrystals and amorphous form by XRPD
[2] = Physical form stability (dehydration of the monohydrate); settings: under vacuum at ambient temperature, at temperatures greater than 25° C. or at low humidity
[3] = Solid stability of drug substance (chemical by UPLC; physical by XRPD, DSC, TGA); settings: stored at 25° C./60% RH, 40° C./75% RH, 40° C./ambient or 60° C./ambient conditions
Protocol: Solid Stability Drug substance was stored at 25 C/60% RH, 40 C/75% RH, 40 C/ambient or 60 C/ambient conditions. Chemical stability was determined at each timepoint by dissolving the drug substance in 50% acetonitrile water for UPLC analysis. Physical stability was determined by analyzing the solid by XRPD, DSC and TGA.

[4] = Moisture sorption (dynamic vapor sorption, hygroscopicity 0 to 95% RH); settings: for hygroscopicity: DVS, 0 to 95% RH
Protocol: Moisture Sorption Moisture sorption data was collected using a dynamic vapor sorption (DVS) analyzer. A sample size of approximately 5-10 mg was used in a quartz pan. Hygroscopicity was evaluated from 0 to 95% RH in increments of 5 or 10% RH. Data for adsorption and desorption cycles were collected. Equilibrium criteria were set at 0.002% weight change in 5 minute with a maximum equilibration time of 120 minutes.

[5] = Solubility in water (excess solid dispersed at least 24 hours at room temperature, UPLC-UV)
Protocol: Water: An excess of solid was added to water to produce a suspension and dispersed for at least 24 hours at room temperature. Suspensions were filtered. Filtrate was analyzed by UPLC-UV and compared against a standard curve to determine the solution concentration of the crystal form. Solids were analyzed by XRPD to determine the crystal form.

CS(=O)(=O)c1cncc(C(=O)N2[C@@H](C(=O)N[C@@H](c3cc(F)c(C(F)(F)F)cc3F)C3CC3)C[C@H]3C[C@H]32)c1 [Amorphous Form]
time to crystallization upon static storage ([1]; static storage at 80° C./0% RH or 40° C./75% RH): ≤ 1 week

CS(=O)(=O)c1cncc(C(=O)N2[C@@H](C(=O)N[C@@H](c3cc(F)c(C(F)(F)F)cc3F)C3CC3)C[C@H]3C[C@H]32)c1 [Form III]
stability of the monohydrate (dehydration) [2]: dehydrates

CS(=O)(=O)c1cncc(C(=O)N2[C@@H](C(=O)N[C@@H](c3cc(F)c(C(F)(F)F)cc3F)C3CC3)C[C@H]3C[C@H]32)c1 [Form IV]
time physically and chemically stable on storage [3]: 13 weeks | hygroscopicity [4]: non-hygroscopic | solubility in water [5]: 0.010 mg/mL (≈ 18.4 µM)

CS(=O)(=O)c1cncc(C(=O)N2[C@@H](C(=O)N[C@@H](c3cc(F)c(C(F)(F)F)cc3F)C3CC3)C[C@H]3C[C@H]32)c1 [Form I]
time physically and chemically stable on storage [3]: 14 weeks | hygroscopicity [4]: non-hygroscopic | solubility ([5]; thermodynamic from solid): 13 µg/mL (≈ 23.9 µM)

CS(=O)(=O)c1cncc(C(=O)N2[C@@H](C(=O)N[C@@H](c3cc(F)c(C(F)(F)F)cc3F)C3CC3)C[C@H]3C[C@H]32)c1 [Glycerol cocrystal]
storage stability by XRPD ([1]; 40° C./75% RH storage 7 d): Stable

CS(=O)(=O)c1cncc(C(=O)N2[C@@H](C(=O)N[C@@H](c3cc(F)c(C(F)(F)F)cc3F)C3CC3)C[C@H]3C[C@H]32)c1 [Hydrochloride Salt Form]
hygroscopicity [4]: hygroscopic | salt stability upon exposure to water ([4]; exposure to water during moisture sorption experiments or slurry in water): disproportionates to Free Form

CS(=O)(=O)c1cncc(C(=O)N2[C@@H](C(=O)N[C@@H](c3cc(F)c(C(F)(F)F)cc3F)C3CC3)C[C@H]3C[C@H]32)c1 [Urea cocrystal]
storage stability by XRPD ([1]; 25° C./97% RH storage 7 d): Stable
